Test results taken from US10392385B2, “N-((1-phenyl-9H-pyrido[3,4-b]indol-3-yl)methyl)cinnamamides as potential anticancer agents and preparation thereof” (Council of Scientific & Industrial Research, priority 2016, dated 2019).

Assays:
A549 (lung cancer) = experiment: MTT cytotoxicity assay, A549; assay type: cell-based; conditions: Homo sapiens, 48 h of drug treatment (footnote), average of three experiments
From the text: (§1) The N-((1-phenyl-9H-pyrido[3,4-b]indol-3-yl)methyl)cinnamamides (1a-h, 2a-h and 3a-h) have been tested against five human cancer cell lines such as A549 (lung cancer), MCF-7 (breast cancer), B16 (melanoma), HeLa (cervical cancer) and NIH3T3 (mouse embryonic fibroblast cancer). All the cancer cell lines (HeLa, A549, MCF-7 and B16) were procured from National Centre for Cell Sciences (NCCS, Pune, India) and NIH 3T3 cell line was obtained from American Type Culture Collection (Rockville, Md., USA). Stock cells were cultured in DMEM supplemented with 10% Fetal Bovine Serum (FBS), in an humidified atmosphere of 5% CO2 at 37° C. until they are 80% confluent. To study the cytotoxicity of the compounds, after 80% confluence, cells were trypsinized with 0.1% trypsin-EDTA and harvested by centrifugation at 500×g. Serial dilutions of cells were made from 1×10^6 to 1×10^3 cells per mL The cells were seeded in triplicate in a 96 well plate. […]. […] The cell viability was determined by measuring the ability of cells to transform MTT to a purple coloured formazan dye. The absorbance of samples at 570 nm was measured using a UV-Visible spectrophotometer. Percentage of viable cells was calculated by using the formula given below.
Where the OD570 (sample) corresponds to absorbance obtained from the wells treated with compound and OD570 (control) represents the absorbance from the wells in which no compound was added.

MCF-7 (breast cancer) = experiment: MTT cytotoxicity assay, MCF-7; assay type: cell-based; conditions: Homo sapiens, MCF7, average of three experiments
From the text: as §1
(§2) Where the OD570 (sample) corresponds to absorbance obtained from the wells treated with compound and OD570 (control) represents the absorbance from the wells in which no compound was added. For these compounds results are expressed as half maximal inhibitory concentration (IC50) values and the anticancer activity data of 1a-h, 2a-h and 3a-h are shown in Table 2.

B16 (melanoma) = experiment: MTT cytotoxicity assay, B16; assay type: cell-based; conditions: 48 h of drug treatment (footnote), average of three experiments
From the text: as §1, §2

HeLa (cervical cancer) = experiment: MTT cytotoxicity assay, HeLa; assay type: cell-based; conditions: Homo sapiens, of drug treatment (footnote), average of three experiments
From the text: as §1, §2

[1] = system: NIH3T3 (mouse embryonic fibroblast cell line); experiment: MTT cytotoxicity assay, NIH3T3; assay type: cell-based; conditions: 48 h of drug treatment (footnote), average of three experiments
From the text: as §1, §2

Row | SMILES | IC50 (A549 (lung cancer)) | IC50 (MCF-7 (breast cancer)) | IC50 (B16 (melanoma)) | IC50 (HeLa (cervical cancer)) | IC50 [1] | melting point
1 | O=C(/C=C/c1cc(F)cc(F)c1)NCc1cc2c([nH]c3ccccc32)c(-c2cccc(F)c2)n1 [Compound 1d, (E)-3-(3,5-difluorophenyl)-N-((1-(3-fluorophenyl)-9H-pyrido[3,4-b]indol-3-yl)methyl)acrylamide] | 21 ± 1.2 nM | 16.5 ± 0.6 nM | 18.2 ± 0.3 nM | 23.6 ± 0.5 nM | 36 ± 2.3 nM | 215 to 220 °C
2 | COc1ccc(-c2nc(CNC(=O)/C=C/c3ccc(Cl)cc3)cc3c2[nH]c2ccccc23)cc1 [Compound 3f, (E)-3-(4-chlorophenyl)-N-((1-(4-methoxyphenyl)-9H-pyrido[3,4-b]indol-3-yl)methyl)acrylamide] | 18.9 ± 1.1 nM | 14.1 nM | 16.6 ± 0.5 nM | 21.6 ± 0.6 nM | 38.3 ± 1.3 nM | –
3 | COc1cc(-c2nc(CNC(=O)/C=C/c3cc(F)cc(F)c3)cc3c2[nH]c2ccccc23)cc(OC)c1OC [Compound 2d, (E)-3-(3,5-difluorophenyl)-N-((1-(3,4,5-trimethoxyphenyl)-9H-pyrido[3,4-b]indol-3-yl)methyl)acrylamide] | 21.6 ± 1.2 nM | 19.6 ± 1.1 nM | 24.1 ± 0.7 nM | 23.8 ± 0.3 nM | 36.3 ± 1.7 nM | 228 to 230 °C
4 | COc1ccc(OC)c(/C=C/C(=O)NCc2cc3c([nH]c4ccccc43)c(-c3cc(OC)c(OC)c(OC)c3)n2)c1 [Compound 2e, (E)-3-(2,5-dimethoxyphenyl)-N-((1-(3,4,5-trimethoxyphenyl)-9H-pyrido[3,4-b]indol-3-yl)methyl)acrylamide] | 18.8 ± 1.4 nM | 17.2 ± 0.6 nM | 19.2 ± 1.4 nM | 25.09 ± 0.2 nM | 39 ± 1.9 nM | 148 to 150 °C
5 | COc1ccc(-c2nc(CNC(=O)/C=C/c3cc(OC)ccc3OC)cc3c2[nH]c2ccccc23)cc1 [Compound 3e, (E)-3-(2,5-dimethoxyphenyl)-N-((1-(4-methoxyphenyl)-9H-pyrido[3,4-b]indol-3-yl)methyl)acrylamide] | 18.9 ± 1.2 nM | 16.5 ± 0.7 nM | 22.1 ± 0.4 nM | 25.4 ± 0.3 nM | 34.4 ± 1.6 nM | 130 to 135 °C
6 | COc1cc(-c2nc(CNC(=O)/C=C/c3cccc(O)c3)cc3c2[nH]c2ccccc23)cc(OC)c1OC [Compound 2h, (E)-3-(3-hydroxyphenyl)-N-((1-(3,4,5-trimethoxyphenyl)-9H-pyrido[3,4-b]indol-3-yl)methyl)acrylamide] | 19.5 ± 1.5 nM | 16.8 ± 0.5 nM | 21.8 ± 0.8 nM | 23.65 ± 0.1 nM | 38.2 ± 1.5 nM | 175 to 178 °C
7 | COc1cc(-c2nc(CNC(=O)/C=C/c3ccc(Cl)cc3)cc3c2[nH]c2ccccc23)cc(OC)c1OC [Compound 2f, (E)-3-(4-chlorophenyl)-N-((1-(3,4,5-trimethoxyphenyl)-9H-pyrido[3,4-b]indol-3-yl)methyl)acrylamide] | 18.9 ± 1.7 nM | 17.5 ± 0.9 nM | 18.7 ± 1.1 nM | 26.8 ± 0.4 nM | 35.6 ± 2.1 nM | 148 to 150 °C
8 | COc1cc(/C=C/C(=O)NCc2cc3c([nH]c4ccccc43)c(-c3cccc(F)c3)n2)ccc1O [Compound 1g, (E)-N-((1-(3-fluorophenyl)-9H-pyrido[3,4-b]indol-3-yl)methyl)-3-(4-hydroxy-3-methoxyphenyl)acrylamide] | 22.4 ± 1.1 nM | 17.9 ± 0.7 nM | 19.4 ± 1.1 nM | 23.9 ± 0.4 nM | 36.9 ± 1.9 nM | 205 to 210 °C
9 | COc1cc(-c2nc(CNC(=O)/C=C/c3ccc(Cl)c(Cl)c3)cc3c2[nH]c2ccccc23)cc(OC)c1OC [Compound 2b, (E)-3-(3,4-dichlorophenyl)-N-((1-(3,4,5-trimethoxyphenyl)-9H-pyrido[3,4-b]indol-3-yl)methyl)acrylamide] | 20.4 ± 0.7 nM | 17.5 ± 1.4 nM | 16.9 ± 0.7 nM | 25.87 ± 0.2 nM | 39.2 ± 1.9 nM | –
10 | COc1ccc(-c2nc(CNC(=O)/C=C/c3ccc(Cl)c(Cl)c3)cc3c2[nH]c2ccccc23)cc1 [Compound 3b, (E)-3-(3,4-dichlorophenyl)-N-((1-(4-methoxyphenyl)-9H-pyrido[3,4-b]indol-3-yl)methyl)acrylamide] | 18.4 ± 0.7 nM | 16.4 ± 0.5 nM | 23 ± 0.5 nM | 21.6 ± 0.4 nM | 37.5 ± 1.4 nM | 188 to 190 °C
11 | O=C(/C=C/c1cccc(O)c1)NCc1cc2c([nH]c3ccccc32)c(-c2cccc(F)c2)n1 [Compound 1h, (E)-N-((1-(3-fluorophenyl)-9H-pyrido[3,4-b]indol-3-yl)methyl)-3-(3-hydroxyphenyl)acrylamide] | 23.4 ± 0.8 nM | 19.2 ± 0.6 nM | 24.9 ± 0.5 nM | 27 ± 0.5 nM | 35.7 ± 2.2 nM | 142 to 148 °C
12 | COc1cc(/C=C/C(=O)NCc2cc3c([nH]c4ccccc43)c(-c3cc(OC)c(OC)c(OC)c3)n2)ccc1O [Compound 2g, (E)-3-(4-hydroxy-3-methoxyphenyl)-N-((1-(3,4,5-trimethoxyphenyl)-9H-pyrido[3,4-b]indol-3-yl)methyl)acrylamide] | 18.3 ± 1.4 nM | 17.6 ± 0.7 nM | 19 ± 0.9 nM | 26 ± 0.3 nM | 43.1 ± 1.3 nM | 175 to 178 °C
13 | O=C(/C=C/c1ccc(Cl)cc1)NCc1cc2c([nH]c3ccccc32)c(-c2cccc(F)c2)n1 [Compound 1f, (E)-3-(4-chlorophenyl)-N-((1-(3-fluorophenyl)-9H-pyrido[3,4-b]indol-3-yl)methyl)acrylamide] | 19.6 ± 1.6 nM | 18.3 ± 0.8 nM | 18.2 ± 1.3 nM | 19.2 ± 0.6 nM | 43.6 ± 1.1 nM | 248 to 250 °C
14 | COc1ccc(-c2nc(CNC(=O)/C=C/c3cc(OC)c(OC)c(OC)c3)cc3c2[nH]c2ccccc23)cc1 [Compound 3a, (E)-N-((1-(4-methoxyphenyl)-9H-pyrido[3,4-b]indol-3-yl)methyl)-3-(3,4,5-trimethoxyphenyl)acrylamide] | 19.7 ± 0.6 nM | 13.4 nM | 17.4 ± 0.4 nM | 22.89 ± 0.2 nM | 39.3 ± 1.7 nM | 148 to 150 °C
15 | COc1ccc(-c2nc(CNC(=O)/C=C/c3ccc(F)cc3)cc3c2[nH]c2ccccc23)cc1 [Compound 3c, (E)-3-(4-fluorophenyl)-N-((1-(4-methoxyphenyl)-9H-pyrido[3,4-b]indol-3-yl)methyl)acrylamide] | 20.2 ± 1.3 nM | 18.2 ± 0.7 nM | 21.9 ± 0.3 nM | 22.8 ± 0.6 nM | 36.9 ± 1.6 nM | 145 to 148 °C
16 | COc1ccc(OC)c(/C=C/C(=O)NCc2cc3c([nH]c4ccccc43)c(-c3cccc(F)c3)n2)c1 [Compound 1e, (E)-3-(2,5-dimethoxyphenyl)-N-((1-(3-fluorophenyl)-9H-pyrido[3,4-b]indol-3-yl)methyl)acrylamide] | 22.2 ± 1.1 nM | 17.5 ± 0.3 nM | 19.9 ± 0.7 nM | 21.87 ± 0.2 nM | 39.6 ± 1.8 nM | 228 to 230 °C
17 | COc1ccc(-c2nc(CNC(=O)/C=C/c3cc(F)cc(F)c3)cc3c2[nH]c2ccccc23)cc1 [Compound 3d, (E)-3-(3,5-difluorophenyl)-N-((1-(4-methoxyphenyl)-9H-pyrido[3,4-b]indol-3-yl)methyl)acrylamide] | 20 ± 1.1 nM | 17.2 ± 1.2 nM | 23.87 ± 0.2 nM | 24.6 ± 0.4 nM | 37.5 ± 1.3 nM | 230 to 232 °C
18 | COc1cc(/C=C/C(=O)NCc2cc3c([nH]c4ccccc43)c(-c3cc(OC)c(OC)c(OC)c3)n2)cc(OC)c1OC [Compound 2a, (E)-3-(3,4,5-trimethoxyphenyl)-N-((1-(3,4,5-trimethoxyphenyl)-9H-pyrido[3,4-b]indol-3-yl)methyl)acrylamide] | 21.3 ± 0.9 nM | 16.5 ± 1.1 nM | 17.2 ± 0.4 nM | 23.5 ± 0.3 nM | 38.9 ± 2.5 nM | –
19 | COc1ccc(-c2nc(CNC(=O)/C=C/c3cccc(O)c3)cc3c2[nH]c2ccccc23)cc1 [Compound 3h, (E)-3-(3-hydroxyphenyl)-N-((1-(4-methoxyphenyl)-9H-pyrido[3,4-b]indol-3-yl)methyl)acrylamide] | 18.9 ± 1.4 nM | 13.8 nM | 16.3 ± 0.3 nM | 22.3 ± 0.3 nM | 37.2 ± 1.1 nM | –
20 | O=C(/C=C/c1ccc(F)cc1)NCc1cc2c([nH]c3ccccc32)c(-c2cccc(F)c2)n1 [Compound 1c, (E)-3-(4-fluorophenyl)-N-((1-(3-fluorophenyl)-9H-pyrido[3,4-b]indol-3-yl)methyl)acrylamide] | 16.3 ± 0.3 nM | 16.5 ± 1.8 nM | 16.8 ± 0.8 nM | 24.3 ± 0.6 nM | 30.8 ± 2.1 nM | 258 to 264 °C
